According to the kinase profiling compilation of Christmann-Franck et al. (2016):

How the values were obtained:
Experiment in all cases: KINOMEscan competition binding
Conditions in all cases: compound 10.0 µM
[1] = biological target: FRK (human) (UniProt P42685)
[2] = biological target: CAMK2B (human) (UniProt Q13554)
[3] = biological target: PRKG2 (human) (UniProt Q13237)
[4] = biological target: TYRO3 (human) (UniProt Q06418)
[5] = biological target: EPHA2 (human) (UniProt P29317)
[6] = biological target: NIM1 (human) (UniProt Q8IY84)
[7] = biological target: PIK3CA (human) (UniProt P42336)
PIK3CA (human), sequence (P42336 whole entry, looked up): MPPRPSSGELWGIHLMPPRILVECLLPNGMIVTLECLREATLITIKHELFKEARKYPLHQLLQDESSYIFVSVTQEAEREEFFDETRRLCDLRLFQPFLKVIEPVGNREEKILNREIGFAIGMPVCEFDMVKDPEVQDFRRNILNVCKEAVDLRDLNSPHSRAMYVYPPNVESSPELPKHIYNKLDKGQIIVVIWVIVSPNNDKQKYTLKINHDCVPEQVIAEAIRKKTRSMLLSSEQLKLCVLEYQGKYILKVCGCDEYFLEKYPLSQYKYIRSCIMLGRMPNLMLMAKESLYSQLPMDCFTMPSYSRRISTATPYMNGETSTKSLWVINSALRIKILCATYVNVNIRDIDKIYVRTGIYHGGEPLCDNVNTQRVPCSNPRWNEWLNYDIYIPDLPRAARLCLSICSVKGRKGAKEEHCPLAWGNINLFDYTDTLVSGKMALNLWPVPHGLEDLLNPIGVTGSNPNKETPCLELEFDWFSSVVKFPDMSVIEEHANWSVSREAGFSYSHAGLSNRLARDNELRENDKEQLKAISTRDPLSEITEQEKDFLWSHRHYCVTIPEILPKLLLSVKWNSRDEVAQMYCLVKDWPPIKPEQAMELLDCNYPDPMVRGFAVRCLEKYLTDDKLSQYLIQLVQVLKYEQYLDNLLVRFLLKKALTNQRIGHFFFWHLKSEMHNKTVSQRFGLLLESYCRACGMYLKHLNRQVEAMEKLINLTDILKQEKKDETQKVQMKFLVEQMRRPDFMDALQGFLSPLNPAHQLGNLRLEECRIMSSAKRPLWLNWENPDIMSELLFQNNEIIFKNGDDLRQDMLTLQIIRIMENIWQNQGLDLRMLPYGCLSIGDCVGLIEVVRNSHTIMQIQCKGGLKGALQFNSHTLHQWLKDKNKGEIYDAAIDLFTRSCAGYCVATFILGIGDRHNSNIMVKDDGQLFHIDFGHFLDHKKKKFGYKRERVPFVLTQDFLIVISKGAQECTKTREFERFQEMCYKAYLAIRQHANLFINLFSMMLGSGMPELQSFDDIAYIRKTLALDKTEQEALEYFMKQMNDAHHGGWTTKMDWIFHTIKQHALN

[8] = biological target: ROS1 (human) (UniProt P08922)
[9] = biological target: STK32C (human) (UniProt Q86UX6)
[10] = biological target: PLK1 (human) (UniProt P53350)
[11] = biological target: MAP3K4 (human) (UniProt Q9Y6R4)
[12] = biological target: EPHA7 (human) (UniProt Q15375)
[13] = biological target: RIOK3 (human) (UniProt O14730)
[14] = biological target: MAPK4 (human) (UniProt P31152)
[15] = biological target: MAP3K7 (human) (UniProt O43318)
[16] = biological target: STK11 (human) (UniProt Q15831)
[17] = biological target: SIK3 (human) (UniProt Q9Y2K2)
[18] = biological target: STK16 (human) (UniProt O75716)
STK16 (human), sequence (O75716 whole entry, looked up): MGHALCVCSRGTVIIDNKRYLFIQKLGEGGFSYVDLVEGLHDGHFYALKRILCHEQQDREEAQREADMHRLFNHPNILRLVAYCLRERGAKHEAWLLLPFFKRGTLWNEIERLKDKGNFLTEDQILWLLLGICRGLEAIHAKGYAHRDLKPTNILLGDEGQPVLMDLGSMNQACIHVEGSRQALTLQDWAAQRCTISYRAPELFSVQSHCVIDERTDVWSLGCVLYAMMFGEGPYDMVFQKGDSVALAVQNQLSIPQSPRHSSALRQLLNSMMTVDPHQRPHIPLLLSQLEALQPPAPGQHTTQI

[19] = biological target: NEK4 (human) (UniProt P51957)
NEK4 (human), sequence (P51957 whole entry, looked up): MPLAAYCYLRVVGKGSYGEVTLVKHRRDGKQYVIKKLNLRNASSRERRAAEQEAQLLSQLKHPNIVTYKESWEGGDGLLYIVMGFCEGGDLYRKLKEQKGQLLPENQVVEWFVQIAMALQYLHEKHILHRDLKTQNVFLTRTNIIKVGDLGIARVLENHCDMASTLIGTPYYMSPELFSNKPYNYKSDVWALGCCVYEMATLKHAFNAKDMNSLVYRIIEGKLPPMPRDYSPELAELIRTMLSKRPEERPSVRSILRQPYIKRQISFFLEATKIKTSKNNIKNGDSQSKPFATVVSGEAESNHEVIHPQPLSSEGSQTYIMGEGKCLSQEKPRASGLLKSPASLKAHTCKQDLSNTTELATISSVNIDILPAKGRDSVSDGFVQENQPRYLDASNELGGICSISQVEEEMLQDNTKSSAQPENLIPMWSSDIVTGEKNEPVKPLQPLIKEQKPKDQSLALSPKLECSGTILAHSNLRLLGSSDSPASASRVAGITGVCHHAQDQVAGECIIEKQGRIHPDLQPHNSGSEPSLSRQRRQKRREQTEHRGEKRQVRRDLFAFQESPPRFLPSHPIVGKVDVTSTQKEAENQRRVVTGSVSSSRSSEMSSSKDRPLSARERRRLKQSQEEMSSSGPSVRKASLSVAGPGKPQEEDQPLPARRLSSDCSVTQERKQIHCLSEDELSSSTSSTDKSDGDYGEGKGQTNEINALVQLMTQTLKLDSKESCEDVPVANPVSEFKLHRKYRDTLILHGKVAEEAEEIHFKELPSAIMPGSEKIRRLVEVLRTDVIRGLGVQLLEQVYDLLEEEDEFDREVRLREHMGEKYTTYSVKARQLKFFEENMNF

[20] = biological target: MYO3B (human) (UniProt Q8WXR4)
[21] = biological target: NEK5 (human) (UniProt Q6P3R8)
NEK5 (human), sequence (Q6P3R8 whole entry, looked up): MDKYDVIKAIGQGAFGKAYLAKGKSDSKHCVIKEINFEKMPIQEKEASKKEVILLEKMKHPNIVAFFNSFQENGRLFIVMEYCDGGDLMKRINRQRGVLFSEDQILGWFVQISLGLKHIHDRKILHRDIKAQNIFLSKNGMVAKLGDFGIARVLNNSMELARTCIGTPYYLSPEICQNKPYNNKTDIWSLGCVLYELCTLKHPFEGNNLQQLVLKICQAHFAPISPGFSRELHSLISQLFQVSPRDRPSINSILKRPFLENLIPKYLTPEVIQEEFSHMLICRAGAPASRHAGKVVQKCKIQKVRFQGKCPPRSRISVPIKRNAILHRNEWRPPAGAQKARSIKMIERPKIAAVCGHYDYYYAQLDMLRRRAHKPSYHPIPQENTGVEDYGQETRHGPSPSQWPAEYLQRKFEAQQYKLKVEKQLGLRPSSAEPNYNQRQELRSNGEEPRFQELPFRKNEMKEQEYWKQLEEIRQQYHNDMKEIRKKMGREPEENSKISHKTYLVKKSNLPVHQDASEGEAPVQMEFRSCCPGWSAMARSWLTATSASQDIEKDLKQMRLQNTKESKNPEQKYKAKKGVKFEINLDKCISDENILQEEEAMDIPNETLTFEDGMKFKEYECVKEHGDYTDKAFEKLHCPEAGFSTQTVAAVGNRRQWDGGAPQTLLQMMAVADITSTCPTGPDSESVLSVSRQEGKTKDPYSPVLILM

[22] = biological target: FES (human) (UniProt P07332)
[23] = biological target: ABL2 (human) (UniProt P42684)
[24] = biological target: PIP5K1A (human) (UniProt Q99755)
[25] = biological target: PKMYT1 (human) (UniProt Q99640)
[26] = biological target: MAPK7 (human) (UniProt Q13164)
[27] = biological target: PRKX (human) (UniProt P51817)
PRKX (human), sequence (P51817 whole entry, looked up): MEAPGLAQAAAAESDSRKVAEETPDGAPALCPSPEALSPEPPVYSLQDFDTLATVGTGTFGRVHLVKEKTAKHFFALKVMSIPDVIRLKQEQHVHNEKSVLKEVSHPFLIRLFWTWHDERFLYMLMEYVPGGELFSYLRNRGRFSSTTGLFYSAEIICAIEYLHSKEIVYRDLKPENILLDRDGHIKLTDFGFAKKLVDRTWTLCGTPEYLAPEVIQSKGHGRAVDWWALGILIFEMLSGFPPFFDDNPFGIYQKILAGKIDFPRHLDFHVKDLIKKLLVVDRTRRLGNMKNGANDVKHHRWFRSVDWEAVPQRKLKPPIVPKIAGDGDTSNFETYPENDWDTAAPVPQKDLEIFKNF

[28] = biological target: TNNI3K (human) (UniProt Q59H18)
[29] = biological target: TNK2 (human) (UniProt Q07912)
[30] = biological target: STK17A (human) (UniProt Q9UEE5)
[31] = biological target: FYN (human) (UniProt P06241)
FYN (human), sequence (P06241 whole entry, looked up): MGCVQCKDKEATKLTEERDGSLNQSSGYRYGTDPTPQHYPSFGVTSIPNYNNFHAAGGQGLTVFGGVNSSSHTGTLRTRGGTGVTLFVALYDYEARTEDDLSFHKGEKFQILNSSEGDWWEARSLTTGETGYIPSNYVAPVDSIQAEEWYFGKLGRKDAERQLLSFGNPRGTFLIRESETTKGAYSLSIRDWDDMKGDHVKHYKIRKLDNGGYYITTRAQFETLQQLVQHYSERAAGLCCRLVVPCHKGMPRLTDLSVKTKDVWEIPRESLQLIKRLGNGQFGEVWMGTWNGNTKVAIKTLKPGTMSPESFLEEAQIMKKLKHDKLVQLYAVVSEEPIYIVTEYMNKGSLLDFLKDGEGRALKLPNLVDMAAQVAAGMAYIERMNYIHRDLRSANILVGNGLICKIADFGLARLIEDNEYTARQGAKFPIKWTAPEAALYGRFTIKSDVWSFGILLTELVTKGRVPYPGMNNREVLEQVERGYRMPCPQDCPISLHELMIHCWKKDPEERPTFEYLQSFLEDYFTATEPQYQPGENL

[32] = biological target: AAK1 (human) (UniProt Q2M2I8)
[33] = biological target: AKT3 (human) (UniProt Q9Y243)
[34] = biological target: MYLK3 (human) (UniProt Q32MK0)
[35] = biological target: BTK (human) (UniProt Q06187)
[36] = biological target: RPS6KB1 (human) (UniProt P23443)
RPS6KB1 (human), sequence (P23443 whole entry, looked up): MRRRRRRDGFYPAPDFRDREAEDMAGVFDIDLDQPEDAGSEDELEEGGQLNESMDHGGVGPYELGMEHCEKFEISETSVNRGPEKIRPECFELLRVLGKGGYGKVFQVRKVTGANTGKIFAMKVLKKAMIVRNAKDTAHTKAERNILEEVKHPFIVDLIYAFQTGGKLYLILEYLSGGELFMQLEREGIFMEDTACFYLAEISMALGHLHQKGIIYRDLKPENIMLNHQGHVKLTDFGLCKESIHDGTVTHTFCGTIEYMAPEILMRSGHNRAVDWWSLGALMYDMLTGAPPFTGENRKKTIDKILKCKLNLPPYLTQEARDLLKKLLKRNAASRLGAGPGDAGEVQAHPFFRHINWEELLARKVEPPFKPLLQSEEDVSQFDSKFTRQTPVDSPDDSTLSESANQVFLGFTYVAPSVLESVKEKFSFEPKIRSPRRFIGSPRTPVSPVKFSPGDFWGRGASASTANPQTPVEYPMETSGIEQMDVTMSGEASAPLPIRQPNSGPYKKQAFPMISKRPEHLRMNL

[37] = biological target: SGK110 (human) (UniProt P0C264)
SGK110 (human), sequence (P0C264 whole entry, looked up): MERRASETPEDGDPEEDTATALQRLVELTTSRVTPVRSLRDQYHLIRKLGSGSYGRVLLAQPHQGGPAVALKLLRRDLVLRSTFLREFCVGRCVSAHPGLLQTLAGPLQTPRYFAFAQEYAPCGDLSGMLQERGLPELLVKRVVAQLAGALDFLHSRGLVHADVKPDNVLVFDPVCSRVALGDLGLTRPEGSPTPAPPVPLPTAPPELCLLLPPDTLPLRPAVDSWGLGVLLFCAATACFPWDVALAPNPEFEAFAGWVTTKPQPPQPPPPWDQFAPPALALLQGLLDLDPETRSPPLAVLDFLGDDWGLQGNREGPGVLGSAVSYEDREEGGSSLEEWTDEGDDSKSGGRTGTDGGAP

[38] = test system: ABL1 (human), P00519 [Y253F]
[39] = biological target: NEK6 (human) (UniProt Q9HC98)
NEK6 (human), sequence (Q9HC98 whole entry, looked up): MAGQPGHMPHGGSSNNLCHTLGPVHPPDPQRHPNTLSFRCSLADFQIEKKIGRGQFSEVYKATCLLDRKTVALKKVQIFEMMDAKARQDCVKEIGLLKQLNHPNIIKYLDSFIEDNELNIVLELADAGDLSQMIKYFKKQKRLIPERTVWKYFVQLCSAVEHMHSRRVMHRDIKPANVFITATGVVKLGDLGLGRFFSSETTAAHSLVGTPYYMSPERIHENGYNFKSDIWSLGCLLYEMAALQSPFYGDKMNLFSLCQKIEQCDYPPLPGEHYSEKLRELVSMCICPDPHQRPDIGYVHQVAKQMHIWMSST

[40] = biological target: PDGFRB (human) (UniProt P09619)
[41] = biological target: PTK2 (human) (UniProt Q05397)

Question: With `O=c1cc(N2CCOCC2)oc2c(-c3cccc4c3sc3ccccc34)cccc12` as the compound, how does the kinase still bound, per cent of control [1] read?
Answer: 91%

Question: What about the kinase still bound, per cent of control [2] of the same compound?
Answer: 80%

Question: And the kinase still bound, per cent of control [3]?
Answer: 93%

Question: And the kinase still bound, per cent of control [4]?
Answer: 100%

Question: And the kinase still bound, per cent of control [5]?
Answer: 72%

Question: What about the kinase still bound, per cent of control [6] of the same compound?
Answer: 100%

Question: And the kinase still bound, per cent of control [7]?
Answer: 22%

Question: And the kinase still bound, per cent of control [8]?
Answer: 90%

Question: What about the kinase still bound, per cent of control [9] of the same compound?
Answer: 54%

Question: And the kinase still bound, per cent of control [10]?
Answer: 94%

Question: And the kinase still bound, per cent of control [11]?
Answer: 100%

Question: And the kinase still bound, per cent of control [12]?
Answer: 85%

Question: What about the kinase still bound, per cent of control [13] of the same compound?
Answer: 100%

Question: And the kinase still bound, per cent of control [14]?
Answer: 100%

Question: What about the kinase still bound, per cent of control [15] of the same compound?
Answer: 100%

Question: What about the kinase still bound, per cent of control [16] of the same compound?
Answer: 75%

Question: And the kinase still bound, per cent of control [17]?
Answer: 92%

Question: And the kinase still bound, per cent of control [18]?
Answer: 98%

Question: And the kinase still bound, per cent of control [19]?
Answer: 100%

Question: And the kinase still bound, per cent of control [20]?
Answer: 100%

Question: What about the kinase still bound, per cent of control [21] of the same compound?
Answer: 100%

Question: And the kinase still bound, per cent of control [22]?
Answer: 93%

Question: And the kinase still bound, per cent of control [23]?
Answer: 92%

Question: And the kinase still bound, per cent of control [24]?
Answer: 100%

Question: What about the kinase still bound, per cent of control [25] of the same compound?
Answer: 92%

Question: And the kinase still bound, per cent of control [26]?
Answer: 100%

Question: What about the kinase still bound, per cent of control [27] of the same compound?
Answer: 89%

Question: And the kinase still bound, per cent of control [28]?
Answer: 86%

Question: What about the kinase still bound, per cent of control [29] of the same compound?
Answer: 97%

Question: And the kinase still bound, per cent of control [30]?
Answer: 95%

Question: And the kinase still bound, per cent of control [31]?
Answer: 100%

Question: What about the kinase still bound, per cent of control [32] of the same compound?
Answer: 87%

Question: And the kinase still bound, per cent of control [33]?
Answer: 98%

Question: And the kinase still bound, per cent of control [34]?
Answer: 100%

Question: And the kinase still bound, per cent of control [35]?
Answer: 100%

Question: And the kinase still bound, per cent of control [36]?
Answer: 67%

Question: And the kinase still bound, per cent of control [37]?
Answer: 100%

Question: And the kinase still bound, per cent of control [38]?
Answer: 100%

Question: And the kinase still bound, per cent of control [39]?
Answer: 100%

Question: And the kinase still bound, per cent of control [40]?
Answer: 76%

Question: And the kinase still bound, per cent of control [41]?
Answer: 70%

Question: How did the kinase still bound, per cent of control [1] turn out when `O=C1NC(=O)/C(=C/c2ccc3nccc(-c4ccncc4)c3c2)S1` was run?
Answer: 81%

Question: And the kinase still bound, per cent of control [2]?
Answer: 9.6%

Question: And the kinase still bound, per cent of control [3]?
Answer: 56%

Question: And the kinase still bound, per cent of control [4]?
Answer: 100%

Question: What about the kinase still bound, per cent of control [5] of the same compound?
Answer: 95%

Question: What about the kinase still bound, per cent of control [6] of the same compound?
Answer: 71%

Question: What about the kinase still bound, per cent of control [7] of the same compound?
Answer: 0.05%

Question: And the kinase still bound, per cent of control [8]?
Answer: 78%

Question: What about the kinase still bound, per cent of control [9] of the same compound?
Answer: 96%

Question: What about the kinase still bound, per cent of control [10] of the same compound?
Answer: 26%

Question: What about the kinase still bound, per cent of control [11] of the same compound?
Answer: 96%

Question: And the kinase still bound, per cent of control [12]?
Answer: 88%

Question: What about the kinase still bound, per cent of control [13] of the same compound?
Answer: 1.4%

Question: And the kinase still bound, per cent of control [14]?
Answer: 100%

Question: What about the kinase still bound, per cent of control [15] of the same compound?
Answer: 62%

Question: What about the kinase still bound, per cent of control [16] of the same compound?
Answer: 12%

Question: What about the kinase still bound, per cent of control [17] of the same compound?
Answer: 93%

Question: And the kinase still bound, per cent of control [18]?
Answer: 4.9%

Question: And the kinase still bound, per cent of control [19]?
Answer: 96%

Question: And the kinase still bound, per cent of control [20]?
Answer: 97%

Question: What about the kinase still bound, per cent of control [21] of the same compound?
Answer: 100%

Question: And the kinase still bound, per cent of control [22]?
Answer: 100%

Question: What about the kinase still bound, per cent of control [23] of the same compound?
Answer: 77%

Question: And the kinase still bound, per cent of control [24]?
Answer: 48%

Question: And the kinase still bound, per cent of control [25]?
Answer: 78%

Question: What about the kinase still bound, per cent of control [26] of the same compound?
Answer: 59%

Question: What about the kinase still bound, per cent of control [27] of the same compound?
Answer: 19%

Question: And the kinase still bound, per cent of control [28]?
Answer: 79%

Question: What about the kinase still bound, per cent of control [29] of the same compound?
Answer: 100%

Question: What about the kinase still bound, per cent of control [30] of the same compound?
Answer: 0.2%

Question: What about the kinase still bound, per cent of control [31] of the same compound?
Answer: 94%

Question: What about the kinase still bound, per cent of control [32] of the same compound?
Answer: 1%

Question: And the kinase still bound, per cent of control [33]?
Answer: 100%

Question: What about the kinase still bound, per cent of control [34] of the same compound?
Answer: 6.2%

Question: And the kinase still bound, per cent of control [35]?
Answer: 58%

Question: And the kinase still bound, per cent of control [36]?
Answer: 53%

Question: What about the kinase still bound, per cent of control [37] of the same compound?
Answer: 100%

Question: What about the kinase still bound, per cent of control [38] of the same compound?
Answer: 68%

Question: And the kinase still bound, per cent of control [39]?
Answer: 81%

Question: And the kinase still bound, per cent of control [40]?
Answer: 55%

Question: What about the kinase still bound, per cent of control [41] of the same compound?
Answer: 100%
